pKi: −log10 of the molar value.
target: T1, Human Recombinant Matriptase 2 (Homo sapiens, UniProt Q8IU80); experiment: Matriptase 2 inhibition, fluorescence based assay (Method I); format: biochemical; details: Table A; Ki of Matriptase-2; read-out: Mat-2 Ki
T1 construct: made in house
T1 sequence (Q8IU80 1-811): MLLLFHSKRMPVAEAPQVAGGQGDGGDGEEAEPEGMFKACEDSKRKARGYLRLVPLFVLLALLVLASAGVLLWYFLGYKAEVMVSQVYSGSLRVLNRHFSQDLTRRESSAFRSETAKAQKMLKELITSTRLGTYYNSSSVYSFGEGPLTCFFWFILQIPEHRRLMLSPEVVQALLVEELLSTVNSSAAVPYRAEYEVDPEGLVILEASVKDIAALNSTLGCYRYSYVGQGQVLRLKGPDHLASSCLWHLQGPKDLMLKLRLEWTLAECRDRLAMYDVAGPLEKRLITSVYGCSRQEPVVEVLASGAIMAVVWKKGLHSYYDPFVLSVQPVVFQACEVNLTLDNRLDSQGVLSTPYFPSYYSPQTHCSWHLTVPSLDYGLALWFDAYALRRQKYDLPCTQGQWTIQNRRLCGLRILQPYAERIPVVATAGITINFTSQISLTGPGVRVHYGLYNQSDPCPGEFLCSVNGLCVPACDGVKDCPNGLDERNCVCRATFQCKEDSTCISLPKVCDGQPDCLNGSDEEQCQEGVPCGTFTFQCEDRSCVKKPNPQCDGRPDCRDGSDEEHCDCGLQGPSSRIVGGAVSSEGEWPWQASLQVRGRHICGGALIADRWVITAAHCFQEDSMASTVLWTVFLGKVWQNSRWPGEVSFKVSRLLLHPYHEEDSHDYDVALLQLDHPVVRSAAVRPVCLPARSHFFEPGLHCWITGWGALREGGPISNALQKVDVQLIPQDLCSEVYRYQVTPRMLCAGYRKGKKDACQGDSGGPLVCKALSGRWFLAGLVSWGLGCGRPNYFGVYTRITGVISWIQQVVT
How it was run: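 In-house recombinant enzyme (3.5 nM), preincubated 30 min with compound, then Boc-Gln-Ala-Arg-AMC substrate (62 μM) in 50 mM Tris pH 7.5, 150 mM NaCl, 0.01% gelatin, 1% DMSO, 25 °C. Fluorescence (Ex 360/Em 480 nm) read 60 min after substrate; IC50 from variable-slope sigmoidal fit of % inhibition.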

`CC(C)n1nccc1COC(=O)c1cc2ccc(CN)nc2n1Cc1cc(NS(=O)(=O)Cc2ccccc2)cc2ccccc12` [Compound 111, [1-(propan-2-yl)-1H-pyrazol-5-yl]methyl 6-(aminomethyl)-1-{[3-(phenylmethanesulfon-amido)naphthalen-1-yl]-methyl}-1H-pyrrolo-[2,3-b]pyridine-2-car-boxylate] was tested. Which pKi did it give?
The pKi was 6.30 to 7.00.

`CC(C)OC(=O)c1cc2ccc(CN)nc2n1Cc1cc(NS(=O)(=O)Cc2ccccc2)cc2ccccc12` [Compound 112, propan-2-yl 6-(amino-methyl)-1-{[3-(phenyl-methanesulfonamido)-naphthalen-1-yl]methyl}-1H-pyrrolo[2,3-b]pyr-idine-2-carboxylate] was tested. Which pKi did it give?
The pKi was 5.52 to 6.30.

`NCc1ccc2cc(C(=O)O)n(Cc3cc(NS(=O)(=O)C4(c5ccccc5)CC4)cc4ccccc34)c2n1` [Compound 113, 6-(aminomethyl)-1-{[3-(1-phenylcyclopropane-sulfonamido)naphthalen-1-yl]methyl}-1H-pyr-rolo[2,3-b]pyridine-2-carboxylic acid] was tested. Which pKi did it give?
The pKi was 5.52 to 6.30.

How did the pKi turn out when `NCc1ccc2cc(C(=O)OCCn3cccc3)n(Cc3cc(NS(=O)(=O)Cc4ccccc4)cc4ccccc34)c2n1` [Compound 114, 2-(1H-pyrrol-1-yl)ethyl 6-(aminomethyl)-1-{[3-(phenylmethanesulfon-amido)naphthalen-1-yl]-methyl}-1H-pyrrolo[2,3-b]pyridine-2-carboxylate] was run?
Its pKi is 5.52 to 6.30.

`CCOC(=O)c1cc2ccc(CN)nc2n1Cc1cc(NS(=O)(=O)Cc2ccccc2)cc2ccccc12` [Compound 115, ethyl 6-(aminomethyl)-1-{[3-(phenylmethanesul-fonamido)naphthalen-1-yl]methyl}-1H-pyrrolo-[2,3-b]pyridine-2-car-boxylate] was tested. Which pKi did it give?
Its pKi is 5.52 to 6.30.

With `COC(=O)c1cc2ccc(CN)nc2n1Cc1cc(NS(=O)(=O)Cc2ccccc2)cc2ccccc12` [Compound 116, methyl 6-(aminomethyl)-1-{[3-(phenylmethane-sulfonamido)naphthalen-1-yl]methyl}-1H-pyrrolo-[2,3-b]pyridine-2-car-boxylate] as the molecule, how does the pKi read?
Its pKi is 5.52 to 6.30.

How did the pKi turn out when `NCc1ccc2cc(C(=O)OCC34CC(F)(C3)C4)n(Cc3cc(NS(=O)(=O)Cc4ccccc4)cc4ccccc34)c2n1` [Compound 117, {3-fluorobicyclo[1.1.1]-pentan-1-yl}methyl 6-(aminomethyl)-1-{[3-(phenylmethanesulfon-amido)naphthalen-1-yl]-methyl}-1H-pyrrolo[2,3-b]pyridine-2-carboxylate] was run?
Its pKi is 5.52 to 6.30.

`NCc1ccc2cc(C(=O)OCC3CC3)n(Cc3cc(NS(=O)(=O)Cc4ccccc4)cc4ccccc34)c2n1` [Compound 120, cyclopropylmethyl 6-(aminomethyl)-1-{[3-(phenylmethanesulfon-amido)naphthalen-1-yl]-methyl}-1H-pyrrolo[2,3-b]pyridine-2-carboxylate] was tested. Which pKi did it give?
Its pKi is 5.52 to 6.30.

With `CC(C)COC(=O)c1cc2ccc(CN)nc2n1Cc1cc(NS(=O)(=O)Cc2ccccc2)cc2ccccc12` [Compound 121, 2-methylpropyl 6-(aminomethyl)-1-{[3-(phenylmethanesulfon-amido)naphthalen-1-yl]-methyl}-1H-pyrrolo[2,3-b]pyridine-2-carboxylate] as the molecule, how does the pKi read?
Its pKi is 5.52 to 6.30.

With `CN(CCOC(=O)c1cc2ccc(CN)nc2n1Cc1cc(NS(=O)(=O)Cc2ccccc2)cc2ccccc12)C(=O)OC(C)(C)C` [Compound 122, 2-{[(tert-butoxy)carbon-yl](methyl)amino}ethyl 6-(aminomethyl)-1-{[3-(phenylmethanesulfon-amido)naphthalen-1-yl]-methyl}-1H-pyrrolo[2,3-b]pyridine-2-carboxylate] as the molecule, how does the pKi read?
The pKi was 5.52 to 6.30.

`NCc1ccc2cc(C(=O)OCc3ccccc3)n(Cc3cc(NS(=O)(=O)Cc4ccccc4)cc4ccccc34)c2n1` [Compound 123, benzyl 6-(aminomethyl)-1-{[3-(phenylmethane-sulfonamido)naphthalen-1-yl]methyl}-1H-pyr-rolo[2,3-b]pyridine-2-carboxylate] was tested. Which pKi did it give?
The pKi was 5.52 to 6.30.

`N#Cc1ccc(OC(=O)c2cc3ccc(CN)nc3n2Cc2cc(NS(=O)(=O)Cc3ccccc3)cc3ccccc23)cc1` [Compound 125, 4-cyanophenyl 6-(aminomethyl)-1-{[3-(phenylmethanesulfon-amido)naphthalen-1-yl]-methyl}-1H-pyrrolo-[2,3-b]pyridine-2-car-boxylate] was tested. Which pKi did it give?
The pKi was 5.52 to 6.30.

How did the pKi turn out when `CN(CCOC(=O)c1cc2ccc(CN)nc2n1Cc1cc(NS(=O)(=O)Cc2ccccc2)cc2ccccc12)c1ccccc1` [Compound 126, 2-[methyl(phenyl)-amino]ethyl 6-(amino-methyl)-1-{[3-(phenyl-methanesulfonamido)-naphthalen-1-yl]methyl}-1H-pyrrolo[2,3-b]pyr-idine-2-carboxylate] was run?
Its pKi is 5.52 to 6.30.

`NCc1ccc2cc(C(=O)OCCN3CCOC3=O)n(Cc3cc(NS(=O)(=O)Cc4ccccc4)cc4ccccc34)c2n1` [Compound 130] was tested. Which pKi did it give?
The pKi was 6.30 to 7.00.

With `CC(C)N(CCOC(=O)c1cc2ccc(CN)nc2n1Cc1cc(NS(=O)(=O)Cc2ccccc2)cc2ccccc12)C(C)C` [Compound 131, 2-[bis(propan-2-yl)-amino]ethyl 6-(amino-methyl)-1-{[3-(phenyl-methanesulfonamido)-naphthalen-1-yl]meth-yl}-1H-pyrrolo[2,3-b]-pyridine-2-carboxylate] as the molecule, how does the pKi read?
Its pKi is 6.30 to 7.00.

How did the pKi turn out when `NCc1ccc2cc(C(=O)OCCCN3CCOCC3)n(Cc3cc(NS(=O)(=O)Cc4ccccc4)cc4ccccc34)c2n1` [Compound 133, 3-(morpholin-4-yl)prop-yl 6-(aminomethyl)-1-{[3-(phenylmethanesul-fonamido)naphthalen-1-ylmethyl}-1H-pyrrolo-[2,3-b]pyridine-2-car-boxylate] was run?
Its pKi is 6.30 to 7.00.

With `CN(CCOC(=O)c1cc2ccc(CN)nc2n1Cc1cc(NS(=O)(=O)Cc2ccccc2)cc2ccccc12)Cc1ccccc1` [Compound 134, 2-[benzyl(methyl)-amino]ethyl 6-(amino-methyl)-1-{[3-(phenyl-methanesulfonamido)-naphthalen-1-yl]methyl}-1H-pyrrolo[2,3-b]pyr-idine-2-carboxylate] as the molecule, how does the pKi read?
Its pKi is 6.30 to 7.00.

How did the pKi turn out when `CN1CCN(CCOC(=O)c2cc3ccc(CN)nc3n2Cc2cc(NS(=O)(=O)Cc3ccccc3)cc3ccccc23)CC1` [Compound 135, 2-(4-methylpiperazin-1-ylethyl 6-(aminomethyl)-1-{[3-(phenylmethane-sulfonamido)naphthalen-1-yl]methyl}-1H-pyrrolo-[2,3-b]pyridine-2-car-boxylate] was run?
Its pKi is ≥ 7.00.

How did the pKi turn out when `NCc1ccc2cc(C(=O)OCCN(Cc3ccccc3)CC3CC3)n(Cc3cc(NS(=O)(=O)Cc4ccccc4)cc4ccccc34)c2n1` [Compound 136, 2-[benzyl(cyclopropyl-methyl)amino]ethyl 6-(aminomethyl)-1-{[3-(phenylmethanesulfon-amido)naphthalen-1-yl]-methyl}-1H-pyrrolo[2,3-b]pyridine-2-carboxylate] was run?
The pKi was 5.52 to 6.30.

`Cn1ccnc1COC(=O)c1cc2ccc(CN)nc2n1Cc1cc(NS(=O)(=O)Cc2ccccc2)cc2ccccc12` [Compound 137, (1-methyl-1H-imidazol-2-yl)methyl 6-(amino-methyl)-1-{[3-(phenyl-methanesulfonamido)-naphthalen-1-yl]methyl}-1H-pyrrolo[2,3-b]pyr-idine-2-carboxylate] was tested. Which pKi did it give?
The pKi was ≥ 7.00.

With `CN(C)C(=O)COC(=O)c1cc2ccc(CN)nc2n1Cc1cc(NS(=O)(=O)Cc2ccccc2)cc2ccccc12` [Compound 139, (dimethylcarbamoyl)-methyl 6-(aminomethyl)-1-{[3-(phenylmethane-sulfonamido)naphthalen-1-yl]methyl}-1H-pyrrolo-[2,3-b]pyridine-2-car-boxylate] as the molecule, how does the pKi read?
Its pKi is 6.30 to 7.00.

How did the pKi turn out when `Cc1nccn1CCOC(=O)c1cc2ccc(CN)nc2n1Cc1cc(NS(=O)(=O)Cc2ccccc2)cc2ccccc12` [Compound 140, 2-(2-methyl-1H-imid-azol-1-yl)ethyl 6-(amino-methyl)-1-{[3-(phenyl-methanesulfonamido)-naphthalen-1-yl]methyl}-1H-pyrrolo[2,3-b]pyr-idine-2-carboxylate] was run?
The pKi was 6.30 to 7.00.

How did the pKi turn out when `CC(=O)N(C)CCOC(=O)c1cc2ccc(CN)nc2n1Cc1cc(NS(=O)(=O)Cc2ccccc2)cc2ccccc12` [Compound 141, 2-(N-methylacetamido)-ethyl 6-(aminomethyl)-1-{[3-(phenylmethane-sulfonamido)naphthalen-1-yl]methyl}-1H-pyrrolo-[2,3-b]pyridine-2-car-boxylate] was run?
Its pKi is 6.30 to 7.00.

`COCCN1CCC(COC(=O)c2cc3ccc(CN)nc3n2Cc2cc(NS(=O)(=O)Cc3ccccc3)cc3ccccc23)CC1` [Compound 142, [1-(2-methoxyethyl)-piperidin-4-yl]methyl 6-(aminomethyl)-1-{[3-(phenylmethanesulfon-amido)naphthalen-1-yl]-methyl}-1H-pyrrolo[2,3-b]pyridine-2-carboxylate] was tested. Which pKi did it give?
Its pKi is 6.30 to 7.00.

From patent US20240400553A1, “AMINE BASED MATRIPTASE 2 INHIBITORS AND USES THEREOF” (Disc Medicine, Inc., priority 2023, published 2024)
